Results from patent publication EP3016671B1, “ACTIVELY T[…] PROTEASE-RESISTANT PEPTIDES AS BBB SHUTTLES AND SHUTTLE-CARGO CONSTRUCTS” (Universitat de Barcelona, priority 2013, dated 2015).
Positions of bridges follow the written chain, without caps; N, C: chain ends. Non-standard residues stand in square brackets, D forms with d. Residues, ends and D or L forms follow the SMILES beside them. Dap = NC[C@H](N)C(=O)O

Legend:
mice [1] = settings: amount in 200 µL injected; cited from earlier work
[2] = Transport across the BBB, in vitro bovine cell assay (co-culture, transwell); settings: pH 7.4
Description: (§1) The evaluation method chosen to test the compounds of formula (I) and (II) of the invention was a cell-based assay consisting of a co-culture of brain endothelial cells and astrocytes, which allows to evaluate or to predict the transport of compounds through the BBB. The co-culture method used was described by Gaillard and de Boer in 2008 (Gaillard, PJ et al. "2B-Trans technology: targeted drug delivery across the blood-brain barrier" Methods Mol Biol 2008, vol. 437 pp. 161-175) and consists in seeding of rat astrocytes in a side of a polycarbonate filter (transwell) and bovine brain endothelial cells on the other side of the filter. Under these conditions endothelial cells are able to reach the confluence mimicking the BBB. […] Is commonly used model for permeation studies and toxicity of compounds across the BBB.
(§2) The co-culture assay was used to determine the capacity of the constructs cargo-shuttle to cross the BBB. The apparent permeability of the compounds was measured in triplicate at a concentration of 200 µ M for Examples 1, 2, 3, 5, 10, 13, 15, 16, 17 and 19 and at a concentration of 1.75 µM for Example 21. All the assays were performed with transendothelial electrical resistance values equal or higher than 100 Ω · cm^2 and were carried out in the presence of lucifer yellow to assess the integrity of the cell membrane during the test. The permeability tests were performed in Ringer-HEPES buffer at pH 7.4. The compound of interest was dissolved in the buffer to the desired concentration.
(§3) Once the endothelial cells were confluent on the filters (transwells) these were washed with Ringer-HEPES buffer. The acceptor well was filled with 800 µ L of Ringer-HEPES buffer and the donor well with 200 µL of the solution of the compound to be studied. The system was incubated at 37 °C and 5% CO2 for 2 h. After that time the content of the acceptor and donor compartments were analyzed by HPLC-UV, direct ELISA or fluorescence (depending on cargo anchored to the shuttle). […] The apparent permeability was calculated using the following equation: Papp = (dQ/dt) * (1/A) * (1/CO) (cm/s), where (dQ/dt) is the amount of compound present in the compartment acceptor function of time (nmol/s). A is the area of the filter(cm2) and CO is the initial concentration of the compound applied in the donor compartment (nmol/mL).

[3] = test system: bovine brain endothelial cells; assay: as above; settings: bovine cell model, 2 h, 37 °C, Ringer-HEPES pH 7.4; 200 µM (Example 21: 1.75 µM)
Description: as §1, §2, §3

mice [4] = assay: Acute toxicity (lethality) after intracaudal injection in mice; assay type: in vivo, Swiss white mice; settings: six mice, observed up to 24 hours
Experimental: (§4) • 1) In zebra fish: The assay was performed by Neuron Bio (Granada). The protocol was based on the assessment of the acute toxicity of substances on zebra fish (Danio rerio) using a static method. This short-term toxicity assay method replicated the guidelines of the document OECD Draft Guideline for the study of chemicals, Fish Embryo Toxicity (FET) Test (30 May, 2006). 5 concentrations were evaluated (4.6, 10, 22, 46 and 100 mg/L) in water containing 0.1% DMSO. A control group (vehicle: water and 0.1 % DMSO) and a group with 3,4-dicloroaniline were set up to make sure test conditions were reproducible. […] Apamin (SEQ ID NO:16) was dissolved in phosphate buffer saline (vehicle) so that 200 µL would contain 50 nmol of this peptide (corresponding to its LD50). Compound with SEQ ID NO:9 was dissolved in the same buffer so that 200 µL would contain 1200 nmol of this peptide (near the solubility limit). A first group of six mice (male, 20±2 g, Swiss white mice) were injected with 200 µL of apamin. A second group of six mice were injected with 200 µL of compound with SEQ ID NO:9. A third group of mice were injected with 200 µL of vehicle.

[5] = PAMPA assay (passive diffusion); assay type: in vitro ADME; settings: 400 µM, pH 7.4, 4 h, 20°C, four replicates
Experimental: The buffer was prepared from the concentrated solution by plON, following the manufacturer's instructions. The pH was adjusted to 7.4 using a solution of 0.5 M NaOH. The PAMPA sandwich was separated, and the donor well was filled with 195 µL of the compound with SEQ ID NO 9 (400 µM) solution and a stirring magnet was added. The acceptor plate was then placed into the donor plate. Next, 4 µL of the 20 mg/mL phospholipid mixture (PBLEP) in dodecane was added to the filter of each well, and 200 µL of buffer solution was added to each acceptor well. The plate was then covered. Four replicates were performed for each compound. The PAMPA plate was incubated for 4 h at 20°C and under saturated atmosphere in a GUT-BOXTM apparatus under an agitation vigorous enough to reduce the unstirred water layer (UWL) to 25 µm. After the incubation, the sandwich was separated, and an aliquot of each donor and acceptor well was analyzed by RP-HPLC-UV ad MALDI-TOF MS.

zebra fish (Danio rerio) = assay: Acute toxicity in zebra fish, Fish Embryo Toxicity (FET) test; assay type: in vivo; settings: static method, 4.6, 10, 22, 46 and 100 mg/L in water containing 0.1% DMSO
Experimental: as §4

[6] = Stability of the shuttles in human serum; assay type: in vitro ADME; settings: 400 µM, HBSS, 37 °C, 90% human serum, 24 h
Experimental: Regarding to the stability study in human serum of the BBB-shuttle (examples 1, 2, 3 and 5), the peptides were incubated at a concentration of 400 µM in buffer HBSS at 37 °C in the presence of 90% human serum. At a range of times, 100 µL aliquots were collected to which methanol was added in order to precipitate the serum proteins. Samples were centrifuged, filtered and analyzed by HPLC-UV and MALDI-TOF MS to determine the degree of degradation of the BBB-shuttle. […] The half life of the derivative bearing a single disulfide bond was 3 h (examples 2), whereas that of the linear version was no more than 8 min.

[7] = Solubility limit in phosphate buffer saline (dosing solution); assay type: physicochemical; settings: in 200 µL phosphate buffer saline
Experimental: as §4

[8] = Evidences of active transport in the bovine cell model (NaN3 inhibition, saturation, 4 °C, abluminal-luminal); assay type: in vitro ADME; settings: bovine; 200 µM, 37 °C, 2 h, abluminal compartment as donor
Experimental: (§5) 1) NaN3 inhibition: Sodium azide (NaN3) is an inhibitor of the resipiratory pathway and, therefore, decreases energy-dependent processes such as transcytosis. […] 2) saturation: Three concentrations of the compound with SEQ ID NO9 were assayed following the procedure of the Example 28.
(§6) The results are consistent with a saturable transport mechanism considering the plateau region has been reached at 100 µM. 3) dramatic decrease in permeability at reduced temperature: The procedure of the Example 28 was followed until the endothelial cells were confluent. To perform the experiment, the filters (transwells) were washed with Ringer-HEPES buffer. The abluminal compartment was filled with 800 µL of Ringer-HEPES and the luminal compartment was filled with 200 µL of the compound with SEQ ID NO 9 in Ringer-HEPES (200 µM). The system was incubated at 4 °C and 5 % CO2 for 2 h. […] The permeability at 4 °C is 0.23±0.04)·10^-6 cm/s, which is dramatically lower (P < 0.0001, unpaired t-test) than at 37 °C. This low transport is consistent with an energy-dependent process. 4) luminal-abluminal transport > abluminal-luminal transport.: The procedure of the Example 28 was followed until the endothelial cells were confluent. […] The abluminal compartment (in this experiment the donor) was filled with 800 µL of the compound with SEQ ID NO 9 in Ringer-HEPES (200 µM) and the luminal compartment (in this experiment the acceptor) with 200 µL Ringer-HEPES.

[9] = test system: bovine brain endothelial cells; assay: as above; assay type: in vitro ADME; settings: for Relative transport: saturation
Experimental: as §5, §6

[10] = test system: human endothelial cells derived from hematopoietic stem cells; assay: Transport across the BBB, in vitro human cell assay (co-culture, transwell); assay type: in vitro ADME; settings: human cell model, 37 °C, Ringer-HEPES pH 7.4, 200 µM peptides, 25 nM Examples 22 and 23, 30 nM Example 24, 5 nM Example 25
Experimental: (§7) Due to the great interest to know whether the cargo-BBB shuttle conjugates would be transported across human brain endothelial cells, some of the most relevant cargoes for therapy and diagnosis were assayed in a novel human-based BBB cell model. In this case, the co-culture method used was described by Cecchelli et al. (Cecchelli et al. PloS One. 2014. vol9. pp. e99733) and consists in seeding bovine pericytes in the bottom of a 12-well plate and human endothelial cells derived from hematopoietic stem cells on a transwell filter.
(§8) The compound of interest was disolved or buffer-exhanged and diluted to the desired concentration.
(§9) Cetuximab and cetuximab conjugates were radiolabelled to be assayed in the cell model. Pierce^(R) iodination beads were used following the instructions provided by the manufacturer.
(§10) The apparent permeability was calculated using the same equation as for the bovine cell model.

[11] = as above; assay type: in vitro ADME; settings: human cell model, 37 °C, Ringer-HEPES pH 7.4, 200 µM peptides, 25 nM Examples 22 and 23, 30 nM Example 24, 5 nM Example 25, read-out: Papp (x 10^6)
Experimental: as §7, §8, §9, §10

## CC(C)C[C@@H]1NC(=O)[C@H](C)NC(=O)[C@H]([C@@H](C)O)NC(=O)[C@H](CCC(=O)O)NC(=O)[C@@H]2CCCN2C(=O)[C@H](C)NC(=O)[C@H](CCCCN)NC(=O)[C@@H]2CSSC[C@@H](C(=O)N[C@@H](CCC(N)=O)C(=O)N[C@@H](CCC(N)=O)C(=O)N[C@@H](Cc3cnc[nH]3)C(N)=O)NC(=O)[C@H](CCCNC(=N)N)NC(=O)[C@H](CCCNC(=N)N)NC(=O)[C@H](C)NC(=O)[C@H](CSSC[C@H](N)C(=O)N[C@@H](CC(N)=O)C(=O)N2)NC1=O [Comparative example 1, H-Cys-Asn-Cys-Lys-Ala-Pro-Glu-Thr- Ala-Leu-Cys-Ala-Arg-Arg-Cys-Gln-Gln-His-NH2, reference compound]
Mice [1]
  LD50: 50 nmol
[2]
  Papp: 0.8 ± 0.1 ×10⁻⁶ cm/s
[3]
  Transport (%) (2h): 0.9±0.2%
Mice [4]; 50 nmol in 200 µL
  animals that died: two
  animals that showed convulsions during the first hours: All the animals

## CC(C)C[C@@H]1NC(=O)[C@H](C)NC(=O)[C@H]([C@@H](C)O)NC(=O)[C@H](CCC(=O)O)NC(=O)[C@@H]2CCCN2C(=O)[C@H](C)NC(=O)[C@H](CCCCN)NC(=O)[C@@H]2CSSC[C@@H](C(=O)N[C@@H](Cc3c[nH]cn3)C(N)=O)NC(=O)[C@H](C)NC(=O)[C@H](C)NC(=O)[C@H](C)NC(=O)[C@H](CSSC[C@H](N)C(=O)N[C@@H](CC(N)=O)C(=O)N2)NC1=O [Example 1, H-Cys-Asn-Cys-Lys-Ala-Pro-Glu-Thr-Ala-Leu-Cys-Ala-Ala-Ala-Cys-His-NH2] (H-CNCKAPETALCAAACH-NH2; disulfide 1-11, 3-15)
[5]
  detection in PAMPA by HPLC-UV: could not be detected
  detection in PAMPA by MALDI-TOF MS: only in two out of four replicates was found
Zebra fish (Danio rerio)
  lethal parameters of the embryos: None of the lethal parameters studied in the embrios treated with the compound with SEQ ID NO:9 was different from those treated with the vehicle
[6]
  degradation in human serum: No degradation
[7]
  solubility limit: ~1200 nmol
[2]; bovine
  Papp at 2 h: 2.7 ± 0.3 ×10⁻⁶ cm/s
[3]
  Transport (%) (2h): 3.2±0.3%
[8]
  Papp B→A at 2 h, 200 µM: 1.06 ± 0.03 ×10⁻⁶ cm/s
[9]; 200 µM, 4 °C, 5 % CO2, 2 h, luminal to abluminal
  permeability at 4 °C: 0.23±0.04 ·10^-6 cm/s
[9]; 30 min treatment with 1.5 mM sodium azide prior to the permeability assay
  transport after NaN3 treatment: very significantly (p < 0.001) inhibited
[9]; concentration 100 µM
  Relative transport: 100±39
[9]; concentration 200 µM
  Relative transport: 110±6
[9]; concentration 500 µM
  Relative transport: 86±6
Mice [4]; 1200 nmol in 200 µL
  animals that died: no animal
  animals that showed any envenomation symptoms: no animal

## CC[C@H](C)[C@H](NC(=O)[C@H](CCC(=O)O)NC(=O)[C@@H](NC(=O)[C@H](CCC(N)=O)NC(=O)[C@H](CCCCN)NC(=O)[C@@H]1CC(=O)NC[C@H](N)C(=O)N[C@@H](CCCCN)C(=O)N[C@@H](C)C(=O)N2CCC[C@H]2C(=O)N[C@@H](CCC(=O)O)C(=O)N[C@@H]([C@@H](C)O)C(=O)N[C@@H](C)C(=O)N[C@@H](CC(C)C)C(=O)N1)[C@@H](C)CC)C(=O)N[C@@H](CCCCN)C(=O)N[C@@H](CCCCN)C(=O)N[C@@H](Cc1ccccc1)C(=O)N[C@@H](CCCCN)C(N)=O [Example 27, H-Dap-Lys-Ala-Pro-Glu-Thr-Ala-Leu-Asp-Lys-Gln-Ile-Glu-Ile-Lys-Lys-Phe-Lys-NH2] (H-[Dap]KAPETALDKQIEIKKFK-NH2; lactam 1-9)
[10]
  Transport (%) (2h): 3.1±0.2%
[11]
  Papp at 2 h: 1.9 ± 0.1 ×10⁻⁶ cm/s
